# Results as given in ChEMBL document CHEMBL5608113, “Targeting of CAF-induced therapy resistance in CRC organoid-stroma co-cultures” (2024).
# Tests used:
# Format in all cases: functional, Homo sapiens
# Settings in all cases: Homo sapiens, read-out: Cell Viability; for viability at 10 µM: Concentration 10 uM; for viability at 1 µM: Concentration 1 uM
# Colon cancer organoid [1] = assay: Targeting of F14 CAF-induced therapy resistance in O14 CRC organoid-stroma co-culture. Cell viability is reported with Gefitinib.
# Colon cancer organoid [2] = assay: Targeting of F14 CAF-induced therapy resistance in O23 CRC organoid-stroma co-culture. Cell viability is reported with SN-38.
# Colon cancer organoid [3] = assay: Targeting of F14 CAF-induced therapy resistance in O23 CRC organoid-stroma co-culture. Cell viability is reported without Gefitinib.
# Colon cancer organoid [4] = assay: Targeting of F14 CAF-induced therapy resistance in O23 CRC organoid-stroma co-culture. Cell viability is reported with Gefitinib.
# Colon cancer organoid [5] = assay: Targeting of F14 CAF-induced therapy resistance in O14 CRC organoid-stroma co-culture. Cell viability is reported without Gefitinib.
SMILES,viability at 10 µM (Colon cancer organoid [1]) [%],viability at 10 µM (Colon cancer organoid [2]) [%],viability at 10 µM (Colon cancer organoid [3]) [%],viability at 10 µM (Colon cancer organoid [4]) [%],viability at 10 µM (Colon cancer organoid [5]) [%],viability at 1 µM (Colon cancer organoid [1]) [%],viability at 1 µM (Colon cancer organoid [2]) [%],viability at 1 µM (Colon cancer organoid [3]) [%],viability at 1 µM (Colon cancer organoid [4]) [%],viability at 1 µM (Colon cancer organoid [5]) [%]
CN1CCN(C(=O)C(C)(C)c2ccc(C(=O)Nc3cn4cc(-c5cc(C(C)(C)C)cc(C(C)(C)C)c5)ccc4n3)cc2)CC1 [T3-CLK-N],53.2,63.2,81.4,28.2,112,,,,,
COc1cccc2c1C(=O)c1c(O)c3c(c(O)c1C2=O)CC(O)(C(=O)CO)CC3OC1CC(N)C(O)C(C)O1 (stereo not given),0.921,5.38,3.9,1.62,1.66,,,,,
COc1ccc2c(c1)O[C@@H](c1ccc(OC)c(OC)c1)C[C@H]2NC(=O)C1(c2ccc3c(c2)OC(F)(F)O3)CC1 [A-1596586],44.6,51.3,129,42.2,121,,,,,
C[C@@H]1CN(c2cc(-c3n[nH]c4ccc(OC5(C)CC5)cc34)ncn2)C[C@H](C)O1 [MLi-2],,,,,,27.4,46.4,102,41,113
CC(C)(C)OC(=O)N1CCCC1CNC1CCC(c2cc(F)ccc2F)(S(=O)(=O)c2ccc(Cl)cc2)CC1 (stereo not given) [GSI-NC],52.1,78.6,109,42.1,74.5,,,,,
CC(=O)NCC(=O)N1[C@@H]2CC[C@H]1c1ccc(Nc3ncc(C(F)(F)F)c(NC4CCC4)n3)cc12 [PF-03814735],4.93,48.4,33.7,25.7,14.8,,,,,
C[C@H]1CC(=O)Nc2cc(C(=O)NCCC3CC3)ccc2N1C(=O)N1CC2CC2C1 (stereo not given in full),59.8,160,196,142,108,,,,,
Cn1nc(C(=O)NCc2ccc(C(=O)O)cc2)cc1-c1ccc2[nH]ccc2c1 [BI 4395],62.1,77.4,124,52.8,95.3,,,,,
COc1cc2c(NC3CCN(C(C)C)CC3)nc(N3CCC(F)(F)CC3)nc2cc1OCCCN1CCCC1,56.9,91.7,107,62.4,71.2,,,,,
CNCc1ccccc1-c1csc([C@@H](C)Nc2nc(C)nc3cc(OC)c(OC)cc23)c1 [BAY-293],16.6,50.2,69.8,35,64,,,,,
CNC(=O)c1cc(C(=O)N[C@H]2[C@@H]3COC[C@@H]32)cc2c1O[C@@H](CF)[C@@H]2c1ccccc1 [GSK943],30.9,64.3,67.7,76.1,75.9,,,,,
Cn1c(-c2csc(C3CCN(CC4=NC5N=CC=CC5N4)CC3)n2)nc2ccccc21 (stereo not given) [BAY-070],44.6,105,136,73.4,90.7,,,,,
NC1(c2ccc(-c3nc4c(O)ccnn4c3-c3ccccc3)cc2)CCC1,,,,,,49.5,65,122,69.1,98.8
CCN(CC)S(=O)(=O)Nc1cccc(-c2ccc3c(NC(=O)C4CC4)n[nH]c3c2)c1,50.5,69.2,120,65.5,144,,,,,
Cc1noc(C)c1-c1cnc2c(-c3ccc(C(=O)O)cc3)cn([C@@H](C)c3ccccn3)c2c1 [PLX-51107],6.08,62.8,109,78.8,17.8,,,,,
CCCCN(CCCC)C(=O)CN1C[C@@H](c2cc(OC)c3c(c2)OCO3)[C@H](C(=O)O)[C@H]1CC(C)(C)CCC [A-545],61.5,88.5,142,47,83.6,,,,,
COc1cc(N[C@@H]2CCCC[C@]2(O)C(F)(F)F)ccc1F [BAY-9897],,,,,,40.2,78.5,81.6,66.7,86.4
CNC(=O)Nc1ccc2c(c1)[C@@]1(CC2)OC(=O)N(CC(=O)N(Cc2ccc(F)cc2)[C@@H](C)C(F)(F)F)C1=O [A-486],,,,,,50,69.7,92.2,47.9,90.8
COc1c(C)cc(NC(=O)c2nn(Cc3ccc(F)cc3)c3c2CN(C(=O)c2ccc[nH]2)C[C@]3(C)C(N)=O)cc1C,52.8,73.7,81.4,66.4,121,,,,,
